Some results are limits rather than exact numbers.

The target in this experiment is T1, TBK1 (Homo sapiens, UniProt Q9UHD2).
T1 construct: purchased Promega (Invitrogen is also named in the same bracket) V4158; PR8031B; V3991 (not assigned to the two kinases)
T1 sequence (Q9UHD2 1-729): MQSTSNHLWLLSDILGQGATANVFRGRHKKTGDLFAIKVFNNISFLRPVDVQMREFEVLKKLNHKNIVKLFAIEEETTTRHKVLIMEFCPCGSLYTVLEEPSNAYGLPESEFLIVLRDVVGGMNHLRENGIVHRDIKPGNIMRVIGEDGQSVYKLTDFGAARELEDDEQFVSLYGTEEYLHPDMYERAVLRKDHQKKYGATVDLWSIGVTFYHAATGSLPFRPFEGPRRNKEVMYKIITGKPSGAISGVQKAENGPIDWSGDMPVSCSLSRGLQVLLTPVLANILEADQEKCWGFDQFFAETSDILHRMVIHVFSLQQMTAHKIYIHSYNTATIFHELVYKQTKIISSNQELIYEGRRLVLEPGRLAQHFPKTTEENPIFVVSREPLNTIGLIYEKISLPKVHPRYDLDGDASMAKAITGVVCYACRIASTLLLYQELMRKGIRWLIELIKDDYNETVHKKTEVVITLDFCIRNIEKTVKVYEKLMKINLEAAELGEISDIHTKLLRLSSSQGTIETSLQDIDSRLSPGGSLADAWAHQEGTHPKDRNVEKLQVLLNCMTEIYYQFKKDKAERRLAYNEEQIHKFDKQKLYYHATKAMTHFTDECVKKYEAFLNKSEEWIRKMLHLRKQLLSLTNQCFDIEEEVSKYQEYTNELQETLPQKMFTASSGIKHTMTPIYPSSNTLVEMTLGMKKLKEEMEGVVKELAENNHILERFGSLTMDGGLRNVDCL
The experiment is described as follows: ADP-Glo Kinase Assay, inhibition activity on TBK1. It counts as biochemical. The procedure: Inhibition activities on IKKϵ and TBK1 were evaluated using the compounds of Examples 1 to 250.
The inhibition activities on IKKϵ and TBK1 were measured by a luminometer, IKKϵ/TBK1 Kinase Enzyme System (Promega, Ca# V4158; Invitrogen, PR8031B, Promega, Ca# V3991) and ADP-Glo Kinase Assay using ADP-Glo™ Kinase Analysis Kit (Promega, Ca# V9101) and a kinase reaction buffer [40 mM Tris(pH 7.5), 20 mM MgCl2, 0.1 mg/mL BSA] in accordance with the manufacturer's protocol.
Broadly, the IC50 is the concentration needed to halve the response being measured. For the compound `COc1ccc(-c2cnc3[nH]cc(C4=CCN(C(=O)NC5CCOC5)CC4)c3c2)cc1OC` (stereo not shown) [Example 81, 4-(5-(3,4-Dimethoxyphenyl)-1H-pyrrolo[2,3-b]pyridin-3-yl)-N-(tetrahydrofuran-3-yl)-5,6-dihydropyridine-1(2H)-carboxamide], the IC50 was determined as 0.021 µM. With `CS(=O)(=O)c1ccc(-c2cnc3[nH]cc(C4=CCN(C(=O)NC5CCOC5)CC4)c3c2)cc1` (stereo not shown) [Example 82, 4-(5-(4-(Methylsulfonyl)phenyl)-1H-pyrrolo[2,3-b]pyridin-3-yl)-N-(tetrahydrofuran-3-yl)-5,6-dihydropyridine-1(2H)-carboxamide] the figure was 0.035 µM; with `CN1CCN(Cc2ccc(-c3cnc4[nH]cc(C5=CCN(C(=O)NC6CCOC6)CC5)c4c3)s2)CC1` (stereo not shown) [Example 83, 4-(5-(5-((4-Methylpiperazin-1-yl)methyl)thiophen-2-yl)-1H-pyrrolo[2,3-b]pyridin-3-yl)-N-(tetrahydrofuran-3-yl)-5,6-dihydropyridine-1(2H)-carboxamide], 0.013 µM; with `O=C(NC1CCOC1)N1CC=C(c2c[nH]c3ncc(-c4ccc(CN5CCOCC5)s4)cc23)CC1` (stereo not shown) [Example 84, 4-(5-(5-(Morpholinomethyl)thiophen-2-yl)-1H-pyrrolo[2,3-b]pyridin-3-yl)-N-(tetrahydrofuran-3-yl)-5,6-dihydropyridine-1(2H)-carboxamide], 0.016 µM. With `COc1ccc(-c2cnc3[nH]cc(C4=CCN(C(=O)NN5CCCC5)CC4)c3c2)cc1OC` [Example 85, 4-(5-(3,4-Dimethoxyphenyl)-1H-pyrrolo[2,3-b]pyridin-3-yl)-N-(pyrrolidin-1-yl)-5,6-dihydropyridine-1(2H)-carboxamide 2,2,2-trifluoroacetate] the figure was 0.11 µM; with `COc1ccc(-c2cnc3[nH]cc(C4=CCN(C(=O)NC5CCCC5)CC4C)c3c2)cc1OC` (stereo not shown) [Example 120, N-cyclopentyl-4-(5-(3,4-dimethoxyphenyl)-1H-pyrrolo[2,3-b]pyridin-3-yl)-5-methyl-5,6-dihydropyridine-1(2H)-carboxamide], 0.084 µM. `CC1CN(C(=O)NC2CCCC2)CC=C1c1c[nH]c2ncc(-c3ccc(S(N)(=O)=O)cc3)cc12` (stereo not shown) [Example 124, N-cyclopentyl-5-methyl-4-(5-(4-sulfamoylphenyl)-1H-pyrrolo[2,3-b]pyridin-3-yl)-5,6-dihydropyridine-1(2H)-carboxamide] came in with a half-inhibitory concentration (IC50) of 0.051 µM.

For the compound `CCC1CN(C(=O)NC2CCCC2)CC=C1c1c[nH]c2ncc(-c3ccc(CN4CCOCC4)s3)cc12` (stereo not shown) [Example 128, N-cyclopentyl-5-ethyl-4-(5-(5-(morpholinomethyl)thiophen-2-yl)-1H-pyrrolo[2,3-b]pyridin-3-yl)-5,6-dihydropyridine-1(2H)-carboxamide], the IC50 came out at 0.071 µM. For `COc1ccc(-c2cnc3[nH]cc(C4=C(C)CN(C(=O)NC5CCCC5)CC4)c3c2)cc1OC` [Example 129, N-cyclopentyl-4-(5-(3,4-dimethoxyphenyl)-1H-pyrrolo[2,3-b]pyridin-3-yl)-3-methyl-5,6-dihydropyridine-1(2H)-carboxamide], the concentration for half-maximal inhibition (IC50) was found to be 0.24 µM. With `CC1=C(c2c[nH]c3ncc(-c4ccc(S(C)(=O)=O)cc4)cc23)CCN(C(=O)NC2CCCC2)C1` [Example 130, N-cyclopentyl-3-methyl-4-(5-(4-(methylsulfonyl)phenyl)-1H-pyrrolo[2,3-b]pyridin-3-yl)-5,6-dihydropyridine-1(2H)-carboxamide] the figure was 0.55 µM. With `CC1=C(c2c[nH]c3ncc(-c4ccc(CN5CCOCC5)s4)cc23)CCN(C(=O)NC2CCCC2)C1` [Example 131, N-cyclopentyl-3-methyl-4-(5-(5-(morpholinomethyl)thiophen-2-yl)-1H-pyrrolo[2,3-b]pyridin-3-yl)-5,6-dihydropyridine-1(2H)-carboxamide] the figure was 0.22 µM; with `CS(=O)(=O)c1ccc(-c2cnc3[nH]cc(C4=C(F)CN(C(=O)NC5CCCC5)CC4)c3c2)cc1` [Example 132, N-cyclopentyl-3-fluoro-4-(5-(4-(methylsulfonyl)phenyl)-1H-pyrrolo[2,3-b]pyridin-3-yl)-5,6-dihydropyridine-1(2H)-carboxamide], 0.25 µM; with `COc1ccc(-c2cnc3[nH]cc(C4=C(F)CN(C(=O)NC5CCCC5)CC4)c3c2)cc1OC` [Example 133, N-cyclopentyl-4-(5-(3,4-dimethoxyphenyl)-1H-pyrrolo[2,3-b]pyridin-3-yl)-3-fluoro-5,6-dihydropyridine-1(2H)-carboxamide], 0.22 µM.

Compound `CCOC(=O)N1CC=C(c2c[nH]c3ncccc23)CC1` [Example 135, Ethyl 4-(1H-pyrrolo[2,3-b]pyridin-3-yl)-5,6-dihydropyridine-1(2H)-carboxylate] gave a 50% inhibitory concentration (IC50) of 1.1 µM. With `CCCCCOC(=O)N1CC=C(c2c[nH]c3ncccc23)CC1` [Example 136, Pentyl 4-(1H-pyrrolo[2,3-b]pyridin-3-yl)-5,6-dihydropyridine-1(2H)-carboxylate] the figure was 10.6 µM. With `CCCOC(=O)N1CC=C(c2c[nH]c3ncccc23)CC1` [Example 137, Propyl 4-(1H-pyrrolo[2,3-b]pyridin-3-yl)-5,6-dihydropyridine-1(2H)-carboxylate] the figure was 0.44 µM; with `CCCCOC(=O)N1CC=C(c2c[nH]c3ncccc23)CC1` [Example 138, Butyl 4-(1H-pyrrolo[2,3-b]pyridin-3-yl)-5,6-dihydropyridine-1(2H)-carboxylate], 5.2 µM. With `CC(C)OC(=O)N1CC=C(c2c[nH]c3ncccc23)CC1` [Example 139, Isopropyl 4-(1H-pyrrolo[2,3-b]pyridin-3-yl)-5,6-dihydropyridine-1(2H)-carboxylate] the figure was 0.32 µM; with `O=C(OC1CCCC1)N1CC=C(c2c[nH]c3ncccc23)CC1` [Example 140, Cyclopentyl 4-(1H-pyrrolo[2,3-b]pyridin-3-yl)-3,6-dihydropyridine-1(2H)-carboxylate], 0.31 µM; with `CCC(C)OC(=O)N1CC=C(c2c[nH]c3ncccc23)CC1` (stereo not shown) [Example 141, sec-Butyl 4-(1H-pyrrolo[2,3-b]pyridin-3-yl)-5,6-dihydropyridine-1(2H)-carboxylate], 0.5 µM. The compound `CCC(CC)OC(=O)N1CC=C(c2c[nH]c3ncccc23)CC1` [Example 142, Pentan-3-yl 4-(1H-pyrrolo[2,3-b]pyridin-3-yl)-5,6-dihydropyridine-1(2H)-carboxylate] gave a half-inhibitory concentration (IC50) of 3 µM. With `O=C(OC1CCCCC1)N1CC=C(c2c[nH]c3ncccc23)CC1` [Example 143, Cyclohexyl 4-(1H-pyrrolo[2,3-b]pyridin-3-yl)-5,6-dihydropyridine-1(2H)-carboxylate] the figure was 1 µM. With `COc1ccc(-c2cnc3[nH]cc(C4=CCN(C(=O)OC5CCCC5)CC4)c3c2)cc1OC` [Example 144, Cyclopentyl 4-(5-(3,4-dimethoxyphenyl)-1H-pyrrolo[2,3-b]pyridin-3-yl)-5,6-dihydropyridine-1(2H)-carboxylate] the figure was 0.46 µM; with `CC(C)OC(=O)N1CC=C(c2c[nH]c3ncc(-c4cccc(S(N)(=O)=O)c4)cc23)CC1` [Example 146, Isopropyl 4-(5-(3-sulfamoylphenyl)-1H-pyrrolo[2,3-b]pyridin-3-yl)-5,6-dihydropyridine-1(2H)-carboxylate], above 10 µM; with `COc1ccc(-c2cnc3[nH]cc(C4=CCN(C(=O)OC(C)C)CC4)c3c2)cc1OC` [Example 147, Isopropyl 4-(5-(3,4-dimethoxyphenyl)-1H-pyrrolo[2,3-b]pyridin-3-yl)-5,6-dihydropyridine-1(2H)-carboxylate], 0.11 µM.

As for `CC(C)OC(=O)N1CC=C(c2c[nH]c3ncc(-c4cccc(S(C)(=O)=O)c4)cc23)CC1` [Example 149, Isopropyl 4-(5-(3-(methylsulfonyl)phenyl)-1H-pyrrolo[2,3-b]pyridin-3-yl)-5,6-dihydropyridine-1(2H)-carboxylate], it took 0.03 µM to reach half-maximal inhibition (IC50).

Take `CC(C)OC(=O)N1CC=C(c2c[nH]c3ncc(-c4ccc(S(N)(=O)=O)cc4)cc23)CC1` [Example 150, Isopropyl 4-(5-(4-sulfamoylphenyl)-1H-pyrrolo[2,3-b]pyridin-3-yl)-5,6-dihydropyridine-1(2H)-carboxylate]: the IC50 was determined as 0.036 µM.

The compound `CC(C)(C)OC(=O)N1CC=C(c2c[nH]c3ncc(-c4cccc(S(N)(=O)=O)c4)cc23)CC1` [Example 151, tert-Butyl 4-(5-(3-sulfamoylphenyl)-1H-pyrrolo[2,3-b]pyridin-3-yl)-5,6-dihydropyridine-1(2H)-carboxylate] returned an IC50 of 0.042 µM.

The values are drawn from US10239873B2, “7-azaindole or 4,7-diazaindole derivatives as IKKϵ epsilon and TBK1 inhibitor and pharmaceutical composition comprising same” (GREEN CROSS CORPORATION, priority 2015, dated 2019).
